From patent publication US20030124652A1, “Methods of producing high mannose glycoproteins in complex carbohydrate deficient cells” (NOVAZYME PHARMACEUTICALS, INC., priority 2001, published 2003)

Tested on: CHO cell line (GAA LEC clone R3.3) expressing rh-GAA
Experiment: Phosphorylation efficiency of rh-GAA from cultures containing mannosidase inhibitors ([32P] incorporation by GlcNAc phosphotransferase)
Assay type: cell-based, Chinese Hamster
Details: increasing amounts of inhibitor alone vs no mannosidase inhibitors (FIG. 1)
Procedure: To determine whether mannosidase inhibitors can increase phosphorylation efficiency of recombinant human acid alpha glucosidase (rh-GAA), a CHO cell line (GAA LEC clone R3.3) expressing rh-GAA was grown in various conditions that contained different amounts of the following mannosidase the inhibitors: Kifunensin; Deoxymannojirimycin (DMJ); or combinations of both inhibitors. Conditioned media from each inhibitor condition containing 6 μg of GAA (based on GAA activity assay) was then incubated with purified bovine GlcNAc phosphotransferase (Pt'ase) and [^32P]UDP-GlcNAc. Subsequently, each phosphorylation reaction was loaded onto a concanavalin A-sepharose column to capture glycoproteins, e.g., rh-GAA. The concanavalin A-sepharose was washed and the resin was counted in a liquid scintillation counter to measure the ^32P incorporation, i.e., the extent of phosphorylation on rh-GAA. The results are summarized in Table 1 below and FIGS. 1 and 2.

SMILES | effect on the phosphorylation reaction of rh-GAA (in words)
OC[C@H]1NC[C@@H](O)[C@@H](O)[C@@H]1O [DMJ only, deoxymannojirimycin] | greatly enhance the phosphorylation reaction
O=C1N[C@@H]2[C@@H](O)[C@@H](O)[C@H](O)[C@@H](CO)N2C1=O [Kifunensin only, kifunensine] | greatly enhance the phosphorylation reaction
